Laboratory results: patent US11053235B2, “Substituted 1,4-dihydropyrimidines for the treatment of HBV infection or HBV-induced diseases” (Janssen Sciences Ireland Unlimited Company, priority 2018, dated 2021)

How the values were obtained:
[1] = system: HBV; experiment: Anti-viral assay in HepG2.2.15 cells: HBV inhibitory activity (HBV DNA in culture medium by q-PCR); format: cell-based; conditions: Hepatitis B virus, HepG2.2.15, 144 h, HepG2.2.15 cells, 6 days treatment, HBV DNA in culture medium by q-PCR, highest concentration 10 uM; read-out: EC50
Summary of the method: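 HepG2.2.15 cells seeded at 40,000/well in 2% FBS medium, dosed next day for 6 days (medium refreshed once midway); 8-point 3-fold dilutions from 10 uM top. HBV DNA in culture medium extracted and quantified by q-PCR; EC50 calculated from dose-response.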

[2] = Cytotoxicity determination in HepG2.2.15 cells (CCK-8); format: cell-based; conditions: human, 6 days treatment, CCK-8, highest concentration 100 uM
Summary of the method: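 HepG2.2.15 cells seeded at 5,000 cells/well in 2% FBS medium and exposed to compounds for 6 days (medium refreshed once), 8 three-fold dilutions from 100 uM. Viability read by CCK-8 after 2.5 h at 37 °C, absorbance 450 nm with 630 nm reference; CC50 calculated.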

SMILES | EC50 [1] [µM] | CC50 at 6 days [2] [µM]
COC(=O)C1=C(C2CCN(c3ncc(CC(=O)O)cn3)CC2)NC(c2nccs2)=NC1c1ccc(F)c(F)c1C (single isomer, unassigned) [II-1-B, 2-(2-(4-(6-(3,4-Difluoro-2-methylphenyl)-5-(methoxycarbonyl)-2-(thiazol-2-yl)-3,6-dihydropyrimidin-4-yl)piperidin-1-yl)pyrimidin-5-yl)acetic Acid] | < 0.0046 | 4.97
CCOC(=O)C1=C(C2CCN(c3ncc(C)c(C(=O)O)n3)CC2)NC(c2nccs2)=NC1c1cccc(F)c1C (single isomer, unassigned) [II-2-B, 2-(4-(5-(Ethoxycarbonyl)-6-(3-fluoro-2-methylphenyl)-2-(thiazol-2-yl)-3,6-dihydropyrimidin-4-yl)piperidin-1-yl)-5-methylpyrimidine-4-carboxylic Acid] | 0.0084 | 12.4
CCOC(=O)C1=C(C2CCN(c3ncc(CC(=O)O)cn3)CC2)NC(c2nccs2)=NC1c1cccc(F)c1C (single isomer, unassigned) [II-3-B, 2-(2-(4-(5-(ethoxycarbonyl)-6-(3-fluoro-2-methylphenyl)-2-(thiazol-2-yl)-3,6-dihydropyrimidin-4-yl)piperidin-1-yl)pyrimidin-5-yl)acetic Acid] | < 0.0046 | 4.22
CCOC(=O)C1=C(C2CCN(c3ncc(C)c(C(=O)O)n3)CC2)NC(c2nccs2)=NC1c1ccc(F)cc1C (single isomer, unassigned) [II-4-B, 2-(4-(5-(Ethoxycarbonyl)-6-(4-fluoro-2-methylphenyl)-2-(thiazol-2-yl)-3,6-dihydropyrimidin-4-yl)piperidin-1-yl)-5-methylpyrimidine-4-carboxylic Acid] | 0.019 | 16.3
COC(=O)C1=C(C2CCN(c3ncc(CC(=O)O)cn3)CC2)NC(c2nccs2)=NC1c1cccc(F)c1C (single isomer, unassigned) [II-6-B, 2-(2-(4-(6-(3-Fluoro-2-methylphenyl)-5-(methoxycarbonyl)-2-(thiazol-2-yl)-3,6-dihydropyrimidin-4-yl)piperidin-1-yl)pyrimidin-5-yl)acetic Acid] | 0.0057 | 5.42
COC(=O)C1=C(C2CCN(c3ncc(C)c(C(=O)O)n3)CC2)NC(c2nccs2)=NC1c1ccc(F)cc1C (single isomer, unassigned) [II-7-B, 2-(4-(6-(4-fluoro-2-methylphenyl)-5-(methoxycarbonyl)-2-(thiazol-2-yl)-3,6-dihydropyrimidin-4-yl)piperidin-1-yl)-5-methylpyrimidine-4-carboxylic Acid] | 0.041 | 28.4
COC(=O)C1=C(C2CCN(c3ncc(C)c(C(=O)O)n3)CC2)NC(c2nccs2)=NC1c1cccc(F)c1Cl (single isomer, unassigned) [II-8-B, 2-(4-(6-(2-Chloro-3-fluorophenyl)-5-(methoxycarbonyl)-2-(thiazol-2-yl)-3,6-dihydropyrimidin-4-yl)piperidin-1-yl)-5-methylpyrimidine-4-carboxylic Acid] | 0.0081 | 19
COC(=O)C1=C(C2CCN(c3ncc(CC(=O)O)cn3)CC2)NC(c2nccs2)=NC1c1cccc(F)c1Cl (single isomer, unassigned) [II-9-B, 2-(2-(4-(6-(2-Chloro-3-fluorophenyl)-5-(methoxycarbonyl)-2-(thiazol-2-yl)-3,6-dihydropyrimidin-4-yl)piperidin-1-yl)pyrimidin-5-yl)acetic Acid] | < 0.0046 | 4.9
COC(=O)C1=C(C2CCN(c3ncc(C(=O)O)s3)CC2)NC(c2nccs2)=NC1c1cccc(F)c1Cl (single isomer, unassigned) [II-10-B, 2-(4-(6-(2-Chloro-3-fluorophenyl)-5-(methoxycarbonyl)-2-(thiazol-2-yl)-3,6-dihydropyrimidin-4-yl)piperidin-1-yl)thiazole-5-carboxylic Acid] | 0.0092 | 17.2
COC(=O)C1=C(C2CCN(C(=O)c3cn[nH]c3)CC2)NC(c2nccs2)=NC1c1ccc(F)cc1Cl (single isomer, unassigned) [II-11-X, Methyl 6-(1-(1H-pyrazole-4-carbonyl)piperidin-4-yl)-4-(2-chloro-4-fluorophenyl)-2-(thiazol-2-yl)-1,4-dihydropyrimidine-5-carboxylate] | 0.058 | 16.2
COC(=O)C1=C(C2CCN(C(=O)c3cnn(C)c3)CC2)NC(c2nccs2)=NC1c1ccc(F)cc1Cl (single isomer, unassigned) [II-12-B, Methyl 4-(2-chloro-4-fluorophenyl)-6-(1-(1-methyl-1H-pyrazole-4-carbonyl)piperidin-4-yl)-2-(thiazol-2-yl)-1,4-dihydropyrimidine-5-carboxylate] | 0.066 | 25.5
COC(=O)C1=C(C2CCN(c3nccc(CC(=O)O)n3)CC2)NC(c2nccs2)=NC1c1ccc(F)cc1Cl (single isomer, unassigned) [II-13-A, 2-(2-(4-(6-(2-chloro-4-fluorophenyl)-5-(methoxycarbonyl)-2-(thiazol-2-yl)-3,6-dihydropyrimidin-4-yl)piperidin-1-yl)pyrimidin-4-yl)acetate] | 0.19 | 24.4
COC(=O)C1=C(C2CCN(c3ncc(C)c(C(=O)O)n3)CC2)NC(c2nccs2)=NC1c1ccc(F)cc1Cl (single isomer, unassigned) [II-14-A, 2-(4-(6-(2-Chloro-4-fluorophenyl)-5-(methoxycarbonyl)-2-(thiazol-2-yl)-3,6-dihydropyrimidin-4-yl)piperidin-1-yl)-5-methylpyrimidine-4-carboxylic Acid] | 0.0081 | 32.1
COC(=O)C1=C(C2CCN(c3ncc(CC(=O)O)cn3)CC2)NC(c2nccs2)=NC1c1ccc(F)cc1Cl (single isomer, unassigned) [II-15-A, 2-(2-(4-(6-(2-Chloro-4-fluorophenyl)-5-(methoxycarbonyl)-2-(thiazol-2-yl)-3,6-dihydropyrimidin-4-yl)piperidin-1-yl)pyrimidin-5-yl)acetic Acid] | 0.0055 | 14
COC(=O)C1=C(C2CCN(c3ncc(C(=O)O)c(C)n3)CC2)NC(c2nccs2)=NC1c1ccc(F)cc1Cl (single isomer, unassigned) [II-16-B, 2-(4-(6-(2-Chloro-4-fluorophenyl)-5-(methoxycarbonyl)-2-(thiazol-2-yl)-3,6-dihydropyrimidin-4-yl)piperidin-1-yl)-4-methylpyrimidine-5-carboxylic Acid] | 0.0069 | 7.48
COC(=O)C1=C(C2CCN(c3ncc(C(=O)O)cn3)CC2)NC(c2nccs2)=NC1c1ccc(F)cc1Cl (single isomer, unassigned) [II-17-B, 2-(4-(6-(2-chloro-4-fluorophenyl)-5-(methoxycarbonyl)-2-(thiazol-2-yl)-3,6-dihydropyrimidin-4-yl)piperidin-1-yl)pyrimidine-5-carboxylic Acid] | 0.014 | > 100
COC(=O)C1=C(C2CCN(c3nc(C(=O)O)co3)CC2)NC(c2nccs2)=NC1c1ccc(F)cc1Cl (single isomer, unassigned) [II-18-B, 2-(4-(6-(2-Chloro-4-fluorophenyl)-5-(methoxycarbonyl)-2-(thiazol-2-yl)-3,6-dihydropyrimidin-4-yl)piperidin-1-yl)oxazole-4-carboxylic Acid] | 0.089 | 70
